Experimental data published in publication PMC4849076, “New Cyclic Lipopeptides of the Iturin Class Produced by Saltern-Derived Bacillus sp. KCB14S006” (Marine Drugs, 2016).
Converted amounts (≈) assume the structure as drawn. Read-outs that look alike come from different tables or passages of the source. *1 amine or outer side, *2 acyl side, *3 side chain or, on linkers, in order; H or OH if unused. Where a SMILES comes first, the peptide text is derived from it. [ ]: non-standard residue; d: D form. X1 = CCC(C)CCCCCCCCCC[C@H](CC(=O)[*:2])N[*:1]; X2 = CC(C)CCCCCCCCCCC[C@H](CC(=O)[*:2])N[*:1]; Hyp = O=C(O)[C@@H]1C[C@@H](O)CN1

What was measured:
[1] = system: Penicillium griseofulvum KCTC 6435; assay: Antifungal assay (MIC), Penicillium griseofulvum; format: cell-based; details: for MIC: Penicillium griseofulvum, potato dextrose broth, 2% of overnight cultures, 28 °C, 72 h, lowest concentration preventing visible growth; for Antifungal activity compared with 3 and 4: P. griseofulvum, from MIC
Protocol: (§1) The following microorganisms were used as test strains in the assay; Aspergillus flavus KCTC 6984, Neurospora crassa KCTC 6079, Candida tropicalis KCTC 7830, Candida albicans KCTC 7678, Fusarium oxysporum f. sp. cucumerinum KCTC 6084, Alternaria brassicicola ATCC 96836 and Penicillium griseofulvum KCTC 6435. Potato dextrose broth (Difco Laboratories) was used for a test medium. For C. albicans and C. tropicalis, 100 μL of inoculum suspension of 10^5 spores/mL was plated into 96-well plates containing diluted test compounds, and the plates were incubated at 28 °C for 48 h. For A. flavus, N. crassa, F. oxysporum, A. brassicicola and P. griseofulvum, 100 μL of cell suspension containing 2% of overnight cultures in 96-well were incubated at 28 °C for 72 h. The MIC values were determined as the lowest concentration of each compound that prevented visible growth.

[2] = system: Candida tropicalis KCTC 7830; assay: Antifungal assay (MIC), Candida tropicalis; format: cell-based; details: 10^5 spores/mL, 28 °C, 48 h, lowest concentration preventing visible growth
Protocol: as §1

[3] = system: Neurospora crassa KCTC 6079; assay: Antifungal assay (MIC), Neurospora crassa; format: cell-based; details: for MIC: Neurospora crassa, potato dextrose broth, 2% of overnight cultures, 28 °C, 72 h, lowest concentration preventing visible growth; for Antifungal activity compared with 3 and 4: N. crassa, from MIC
Protocol: as §1

[4] = system: Candida albicans KCTC 7678; assay: Antifungal assay (MIC), Candida albicans; format: cell-based; details: for MIC: Candida albicans, potato dextrose broth, 10^5 spores/mL, 28 °C, 48 h, lowest concentration preventing visible growth; for Antifungal activity compared with 3 and 4: C. albicans, from MIC
Protocol: as §1

[5] = system: Aspergillus flavus KCTC 6984; assay: Antifungal assay (MIC), Aspergillus flavus; format: cell-based; details: for MIC: Aspergillus flavus, potato dextrose broth, 2% of overnight cultures, 28 °C, 72 h, lowest concentration preventing visible growth; for Antifungal activity compared with 3 and 4: A. flavus, from MIC
Protocol: as §1

[6] = system: Fusarium oxysporum f. sp. cucumerinum KCTC 6084; assay: Antifungal assay (MIC), Fusarium oxysporum; format: cell-based
Protocol: as §1

[7] = system: Alternaria brassicicola ATCC 96836; assay: Antifungal assay (MIC), Alternaria brassicicola; format: cell-based; details: 2% of overnight cultures, 28 °C, 72 h, lowest concentration preventing visible growth
Protocol: as §1

[8] = Cytotoxicity assay, src^ts-NRK; format: cell-based; details: rat, src^ts-NRK cells, MEM + 10% calf serum, 32 °C (permissive temperature), WST-8, absorbance 450 nm, read-out: Cytotoxic activity, IC50
Protocol: (§2) The human cervix epidermoid carcinoma cell line HeLa was cultured at 37 °C in DMEM (Invitrogen/Life Technologies, Carlsbad, CA, USA), supplemented with 10% fetal bovine serum (Sigma-Aldrich, St. Louis, MO, USA). src^ts-NRK cells, rat kidney cells that were infected with ts25, a T-class mutant of Rous sarcoma virus Prague strain, were cultured at permissive temperature (32 °C) in MEM (Sigma-Aldrich), supplemented with 10% calf serum (PAA Laboratories, Pashing, Austria). Each cell line was seeded into a 96-well plate (HeLa, 4 × 10^3 cells/well; src^ts-NRK, 1 × 10^4 cells/well) and then exposed to test compounds. After 48 h incubation, cell proliferation was determined using a Cell Count Reagent SF (Nacalai Tesque). Briefly, a 1/10 volume of WST-8 solution was added to each well, and the plates were incubated at 37 °C for 1 h. Then, the absorbance at 450 nm was measured in a microplate reader.

[9] = target: T1, human recombinant IDO (Homo sapiens, UniProt P14902); assay: Indoleamine 2,3-dioxygenase (IDO) inhibition assay; format: biochemical
T1 construct: made in house; host or cells: E. coli
T1 sequence (P14902 whole entry): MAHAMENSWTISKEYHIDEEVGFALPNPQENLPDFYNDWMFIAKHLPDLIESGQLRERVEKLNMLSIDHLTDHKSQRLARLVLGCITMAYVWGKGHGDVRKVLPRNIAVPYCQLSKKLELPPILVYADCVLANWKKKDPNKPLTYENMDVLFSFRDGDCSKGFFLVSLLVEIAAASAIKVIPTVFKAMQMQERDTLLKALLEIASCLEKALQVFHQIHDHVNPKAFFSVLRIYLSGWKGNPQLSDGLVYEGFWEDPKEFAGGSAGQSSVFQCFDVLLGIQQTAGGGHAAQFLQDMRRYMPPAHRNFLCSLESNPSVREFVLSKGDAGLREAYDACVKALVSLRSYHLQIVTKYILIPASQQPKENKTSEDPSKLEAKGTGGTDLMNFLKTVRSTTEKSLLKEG
Protocol: The enzymatic inhibition assay was performed with human recombinant IDO expressed in E. coli according to previously described method with some modifications. The reaction mixture (200 μL) contained 50 mM potassium phosphate buffer (pH 6.5), 20 mM ascorbic acid, 10 μM methylene blue, 200 μM L-Trp, 20 μg/mL catalase and a sample in 2 μL of DMSO. The samples were serially diluted […] from 50 to 0.1 μM. The reaction was started by the addition of IDO and continued at 37 °C for 60 min. After termination of the reaction by addition of 40 μL of 30% (w/v) trichloroacetic acid, the resulting mixtures were incubated at 60 °C for 15 min, followed by centrifugation at 2000 × g for 15 min. Finally, 125 μL of supernatant is added to 125 μL of p-dimethylaminobenzaldehyde (pDMAB) (2%, v/v) in acetic acid, and the absorbance at 480 nm was measured.

[10] = Cytotoxicity assay, HeLa; format: cell-based; details: human, HeLa cells, DMEM + 10% fetal bovine serum, 37 °C, WST-8, absorbance 450 nm, read-out: Cytotoxic activity, IC50
Protocol: as §2

[11] = system: MCF-7; design: method as in PMID 25974307; details: MCF-7 breast cancer cells; cited from earlier work
[12] = system: Akt signaling network; design: method as in PMID 25974307; details: MDA-MB-231 and MCF-7 breast cancer cells; cited from earlier work
[13] = system: MDA-MB-231; design: method as in PMID 25974307; details: MDA-MB-231 breast cancer cells; cited from earlier work
[14] = potato dextrose broth, 2% of overnight cultures, 28 °C, 72 h, lowest concentration preventing visible growth

Compound | MIC [1] | MIC ([2]; potato dextrose broth) | IC50 at 48 h [8] | MIC [3] | MIC [4] | MIC [5] | IC50 at 48 h [10] | MIC [6, 14] | MIC ([7]; potato dextrose broth) | other results
C[C@@H]1[C@H](O)[C@@H](C)/C=C/C=C/C=C/C=C/C=C/C=C/C=C/[C@H](O[C@@H]2O[C@H](C)[C@@H](O)[C@H](N)[C@@H]2O)C[C@@H]2O[C@](O)(C[C@@H](O)C[C@@H](O)[C@H](O)CC[C@@H](O)C[C@@H](O)CC(=O)O[C@H]1C)C[C@H](O)[C@H]2C(=O)O [Amphotericin B, reference compound] | – | – | – | – | – | – | – | – | – | MIC ([1]; KCTC6435, read-out: MIC): 3.12 µg/mL (≈ 3.38 µM); MIC ([2]; KCTC7830, potato dextrose broth, read-out: MIC): 0.781 µg/mL (≈ 0.845 µM); MIC ([3]; KCTC6079, read-out: MIC): 0.098 µg/mL (≈ 0.106 µM); MIC ([4]; KCTC7678, read-out: MIC): 0.098 µg/mL (≈ 0.106 µM); MIC ([5]; KCTC6984, read-out: MIC): 0.195 µg/mL (≈ 0.211 µM); MIC ([6]; KCTC6084, 72 h): 12.5 µg/mL (≈ 13.5 µM); MIC ([7]; ATCC96836, potato dextrose broth, read-out: MIC): 0.391 µg/mL (≈ 0.423 µM)
CCC(C)CCCCCCCCCC[C@@H]1CC(=O)N[C@@H](CC(N)=O)C(=O)N[C@H](Cc2ccc(O)cc2)C(=O)N[C@H](CC(N)=O)C(=O)N[C@@H](CCC(N)=O)C(=O)N2CCC[C@H]2C(=O)N[C@H](CC(N)=O)C(=O)N[C@@H](CO)C(=O)N1 (stereo partly drawn) [Compound 4, Iturin A8] (cyclo(N[dY][dN]QP[dN]S[X1])) | 6.25 µg/mL (≈ 5.76 µM) | 6.25 µg/mL (≈ 5.76 µM) | 9 µM | 12.5 µg/mL (≈ 11.5 µM) | 12.5 µg/mL (≈ 11.5 µM) | 12.5 µg/mL (≈ 11.5 µM) | 5.6 µM | 25 µg/mL (≈ 23 µM) | 25 µg/mL (≈ 23 µM) | IC50 ([9]; human recombinant IDO expressed in E. coli, 50 mM potassium phosphate pH 6.5, 200 μM L-Trp, 37 °C, 60 min, pDMAB, absorbance 480 nm, read-out: IDO inhibition, IC50): 5.5 µM; IDO inhibitory activity (in words) ([9]; human recombinant IDO, pH 6.5, 200 μM L-Trp, 37 °C, 60 min, samples 0.1 to 50 μM): significant inhibitory activity
CC1=CC(=O)c2ccccc2C1=O [menadione, reference compound] | – | – | – | – | – | – | – | – | – | IC50 [9]: 0.64 µM
CC(C)CCCCCCCCCCC[C@@H]1CC(=O)N[C@@H](CC(N)=O)C(=O)N[C@H](Cc2ccc(O)cc2)C(=O)N[C@H](CC(N)=O)C(=O)N[C@@H](CCC(N)=O)C(=O)N2C[C@H](O)C[C@H]2C(=O)N[C@H](CC(N)=O)C(=O)N[C@@H](CO)C(=O)N1 [Compound 1, Iturin F1] (cyclo(N[dY][dN]Q[Hyp][dN]S[X2])) | 3.125 µg/mL (≈ 2.84 µM) | 6.25 µg/mL (≈ 5.68 µM) | 8.9 µM | 6.25 µg/mL (≈ 5.68 µM) | 6.25 µg/mL (≈ 5.68 µM) | 3.125 µg/mL (≈ 2.84 µM) | 8.9 µM | 25 µg/mL (≈ 22.7 µM) | 25 µg/mL (≈ 22.7 µM) | Antifungal activity compared with 3 and 4 [1]: better activities than 3 and 4; Antifungal activity compared with 3 and 4 [3]: better activities than 3 and 4; Antifungal activity compared with 3 and 4 [4]: better activities than 3 and 4; Antifungal activity compared with 3 and 4 [5]: better activities than 3 and 4
CCC(C)CCCCCCCCCC[C@@H]1CC(=O)N[C@@H](CC(N)=O)C(=O)N[C@H](Cc2ccc(O)cc2)C(=O)N[C@H](CC(N)=O)C(=O)N[C@@H](CCC(N)=O)C(=O)N2C[C@H](O)C[C@H]2C(=O)N[C@H](CC(N)=O)C(=O)N[C@@H](CO)C(=O)N1 (stereo partly drawn) [Compound 2, Iturin F2] (cyclo(N[dY][dN]Q[Hyp][dN]S[X1])) | 3.125 µg/mL (≈ 2.84 µM) | 6.25 µg/mL (≈ 5.68 µM) | 7.4 µM | 6.25 µg/mL (≈ 5.68 µM) | 6.25 µg/mL (≈ 5.68 µM) | 3.125 µg/mL (≈ 2.84 µM) | 7.8 µM | 25 µg/mL (≈ 22.7 µM) | 25 µg/mL (≈ 22.7 µM) | Antifungal activity compared with 3 and 4 [1]: better activities than 3 and 4; Antifungal activity compared with 3 and 4 [3]: better activities than 3 and 4; Antifungal activity compared with 3 and 4 [4]: better activities than 3 and 4; Antifungal activity compared with 3 and 4 [5]: better activities than 3 and 4
iturin A | – | – | – | – | – | – | – | – | – | Inhibition of proliferation [11]: inhibits the proliferation; Inhibition of Akt signaling network [12]: inhibiting the Akt signaling network; Inhibition of proliferation [13]: inhibits the proliferation
CC(C)CCCCCCCCCCC[C@@H]1CC(=O)N[C@@H](CC(N)=O)C(=O)N[C@H](Cc2ccc(O)cc2)C(=O)N[C@H](CC(N)=O)C(=O)N[C@@H](CCC(N)=O)C(=O)N2CCC[C@H]2C(=O)N[C@H](CC(N)=O)C(=O)N[C@@H](CO)C(=O)N1 [Compound 3, Iturin A9] (cyclo(N[dY][dN]QP[dN]S[X2])) | 6.25 µg/mL (≈ 5.76 µM) | 6.25 µg/mL (≈ 5.76 µM) | 5.2 µM | 12.5 µg/mL (≈ 11.5 µM) | 12.5 µg/mL (≈ 11.5 µM) | 25 µg/mL (≈ 23 µM) | 4.6 µM | 25 µg/mL (≈ 23 µM) | 25 µg/mL (≈ 23 µM) | –
